Experimental data taken from patent US8206704B2, “Use of GCC ligands” (priority 2003, dated 2012).
Entries after “also recorded” stand apart in the source; their conditions may differ. Like-named read-outs stand apart in the source and are kept apart here.

Key:
T84 cells [1] = assay: DNA synthesis ([methyl-3H]thymidine incorporation), tumor cell proliferation; type: cell-based, human
Experimental: (§1) T84 (passages 50-70) and SW480 (passage 100-120) human colon carcinoma cells, obtained from the American Type Culture Collection, were maintained at 37° C. (5% CO2) in DMEM/F12 containing 2.5 mM L-glutamine, 100 units/ml penicillin, 100 μg/ml streptomycin, and 10% (vol/vol) FBS.
(§2) Exponentially growing cancer cells (˜60% confluent in 96-well plates) were synchronized by serum starvation in Eagle's minimal essential medium (EMEM) for 48 h, followed by proliferative induction with 10 mM L-glutamine (in EMEM) for 24 h. ST and other agents were added to cells 15 min before 0.2 μCi per well (1 Ci=37 GBq) of [methyl-3H]thymidine, which was added for 3 h, followed by quantification of [3H]thymidine incorporation into DNA (15).

SW480 cells = assay: as above; type: cell-based, human; conditions: SW480 cells that do not express GC-C, ST 1 μM
Experimental: as §1, §2

T84 cells [2] = assay: 45Ca2+ transport (calcium influx); type: cell-based, human
Experimental: Exponentially growing T84 cells (40-80% confluent in 24-well plates) were incubated in media (S-MEM, Life Technologies, Rockville, Md.) containing low (300 μM) CaCl2 to maximize the signal-to-noise ratio for L-cis-diltiazem (L-DLT)-sensitive 45Ca2+ transport determinations. Cells were treated with ST, 8-br-cGMP, and/or L-DLT for the indicated times, followed by the addition of 1 μCi per well 45Ca2+ for the last 15 min. Incubations were terminated by washing four times in cold PBS buffer (145 mM NaCl/5 mM KCl/1 mM MgCl2/10 mM glucose/5 mM Hepes, pH 7.4) containing 0.1 mM EGTA, cells were solubilized with cold NaOH (0.1 M), and radioactivity was quantified in 100-μl aliquots.

[3] = tested on: [cGMP]i and intracellular cAMP in T84 cells; assay: Cyclic nucleotide (cGMP, cAMP) quantification by ELISA or RIA; type: cell-based, human
Experimental: cGMP and cAMP were quantified in exponentially growing T84 cells (˜60% confluent in 96-well plates) employing ELISA (Amersham Pharmacia) or RIA. In experiments employing ELISA, media was aspirated, reactions were terminated by the addition of a lysis solution (200 μl per well) containing 0.5% dodecyltrimethylammonium bromide, and aliquots (100 μl) from each well were processed for cyclic nucleotide determinations. In experiments employing RIA, reactions were terminated with ice-cold 100% ethanol, and supernatants were separated from pellets by centrifugation and processed for cGMP determinations (8).

[4] = ST as an anticancer agent in vitro; type: cell-based
[5] = Pharmacokinetics of ST in rats; type: in vivo, rat; conditions: for half-life: rat, in vivo
[6] = tested on: human T84 colon cancer cells; assay: Perforated whole-cell patch-clamp current measurements; type: cell-based
Experimental: The perforated mode of the whole-cell patch-clamp recording was applied to human T84 colon cancer cells. Membrane potential was controlled through the electrical access obtained by membrane perforation induced by amphotericin B (9, 10). The pipette solution supplemented by amphotericin B ([…]) contained: 140 mM KCl, 1 mM MgCl2, 5 mM EGTA, and 20 mM Hepes-KOH (pH 7.3). The bath solution contained (in mM): 136.5 mM NaCl, 5.4 mM KCl, 1.8 mM CaCl2, 0.5 mM MgCl2, 5.5 mM glucose, and 5 mM Hepes-NaOH (pH 7.4). Voltage-clamp recordings were performed with an Axopatch 1-C patch-clamp amplifier (Axon Instruments, Foster City, Calif.) at 31±1° C. using an HCC-100 temperature controller (Dagan Instruments, Minneapolis; ref. 19).

[7] = tested on: human colorectal cancer cells; assay: Association of cells with connective tissue proteins in vitro; type: cell-based; conditions: ST at 1 micromolar
Source text: Type IV collagen forms the connective tissue meshwork supporting the lamina propria and specifically serves to trap cells through specific interactions with beta integrins. Cancer cells evade this trap by diminishing their ability to bind to type IV collagen. […] Enhancing this interaction will prevent metastases by trapping cells in the laminapropria underlying epithelial cells in the intestine.

[8] = tested on: human colorectal cancer cells; assay: Actin cytoskeleton organization (confocal microscopy, cell spreading); type: cell-based
Source text: ST prevented human colorectal cancer cells from organizing their actin cytoskeleton. […] The latter is a functional readout of the ability of cells to organize actin. Human colorectal cancer cells treated with ST cannot spread their bodies out in vitro. An inability to organize their actin cytoskeletons will prevent these cells from being able to migrate through tissues to metastasize.

[9] = Pharmacokinetics of ST in man by allometric scaling and dosage calculation
Source text: An alternative approach is to provide the patient with continual intravenous dosing of ST, thereby maintaining the cytostatic effect through adjuvant chemotherapy, while minimizing any adverse effects associated with ST. To achieve therapeutic efficacy, the steady state concentration (Css) should be ≧10 EC50.

GCC-bearing cells = assay: Pre-clinical cell cycle analysis; type: cell-based; conditions: ST alone
[10] = tested on: matrix metalloproteinase 9 release from human colorectal cancer cells; assay: Release of matrix metalloproteinase 9 (MMP 9 activity, western blot); type: cell-based; conditions: ST 1 micromolar
Source text: Preventing the secretion of this digestive enzyme will inhibit the ability of these tumor cells to invade the wall of the intestine. […] ST did this at a concentration of 1 micromolar.

[11] = tested on: human T84 colon cancer cells; assay: Perforated whole-cell patch-clamp current measurements; type: cell-based; conditions: Ca-free solution, n=5
rat colon = conditions: L-DLT 200 μM; cited from earlier work
ST receptors = ST receptors (Homo sapiens, UniProt P25092); conditions: about; cited from earlier work
ST receptors, sequence (P25092 24-1073): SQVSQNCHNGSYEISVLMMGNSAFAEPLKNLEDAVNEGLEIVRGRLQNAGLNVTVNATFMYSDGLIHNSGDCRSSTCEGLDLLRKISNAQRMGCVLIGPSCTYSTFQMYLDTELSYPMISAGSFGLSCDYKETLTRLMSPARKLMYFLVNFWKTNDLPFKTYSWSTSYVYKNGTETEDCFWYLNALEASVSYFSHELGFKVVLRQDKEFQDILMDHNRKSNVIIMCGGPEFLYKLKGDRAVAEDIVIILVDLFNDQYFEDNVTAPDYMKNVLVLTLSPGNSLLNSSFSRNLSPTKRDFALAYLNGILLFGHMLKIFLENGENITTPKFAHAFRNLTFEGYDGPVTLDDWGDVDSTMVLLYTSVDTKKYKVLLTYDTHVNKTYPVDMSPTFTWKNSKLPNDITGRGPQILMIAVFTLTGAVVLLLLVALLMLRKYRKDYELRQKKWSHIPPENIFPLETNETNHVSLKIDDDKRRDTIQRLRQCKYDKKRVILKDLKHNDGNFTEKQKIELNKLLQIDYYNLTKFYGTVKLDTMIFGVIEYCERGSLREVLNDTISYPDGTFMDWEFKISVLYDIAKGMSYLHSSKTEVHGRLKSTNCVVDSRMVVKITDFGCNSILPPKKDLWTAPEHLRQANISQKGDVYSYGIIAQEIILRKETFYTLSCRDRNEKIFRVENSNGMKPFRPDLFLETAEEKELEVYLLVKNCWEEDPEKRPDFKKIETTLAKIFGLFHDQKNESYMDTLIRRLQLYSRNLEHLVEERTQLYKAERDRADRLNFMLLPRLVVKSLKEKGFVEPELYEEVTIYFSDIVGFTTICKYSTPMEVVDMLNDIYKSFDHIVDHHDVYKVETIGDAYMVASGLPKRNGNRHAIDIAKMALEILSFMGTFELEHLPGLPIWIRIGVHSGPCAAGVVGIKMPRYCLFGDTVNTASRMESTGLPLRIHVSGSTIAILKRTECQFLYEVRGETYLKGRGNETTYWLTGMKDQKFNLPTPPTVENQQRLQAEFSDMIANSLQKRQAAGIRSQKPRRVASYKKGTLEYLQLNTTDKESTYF

## CC(C)C[C@@H]1NC(=O)[C@H](CCC(=O)O)NC(=O)[C@@H]2CSSC[C@@H]3NC(=O)[C@H](C)NC(=O)[C@@H]4CCCN4C(=O)[C@H](CC(N)=O)NC(=O)[C@H](CSSC[C@H](NC(=O)[C@H](Cc4ccc(O)cc4)NC(=O)[C@H](Cc4ccccc4)NC(=O)[C@@H](NC(=O)[C@@H](N)CC(N)=O)[C@@H](C)O)C(=O)N2)NC(=O)[C@H](CSSC[C@@H](C(=O)N[C@@H](Cc2ccc(O)cc2)C(=O)O)NC(=O)CNC(=O)[C@H](C)NC3=O)NC1=O [ST]
T84 cells [1]; T84 cells expressing GC-C, ST 1 μM
  Inhibition of DNA synthesis / cell proliferation by ST: inhibits DNA synthesis; also recorded: inhibits cell proliferation
SW480 cells
  Inhibition of DNA synthesis by ST: not in tumor cells deficient in GC-C; also recorded: not in those cells that do not express GC-C
T84 cells [2]; ST 1 μM, 20 min, 8-br-cGMP 5 mM, 40 min
  Influx of 45Ca2+ into colon cancer cells: induced influx
[3]
  [cAMP]i accumulation: did not induce [cAMP]i accumulation
  [cGMP]i accumulation: induced the accumulation of [cGMP]i; also recorded: independent of [Ca2+]ext
[4]
  IC50: 14 nM
[5]; in rats, an ECF agent
  Volume of distribution, Vd: 49 mls in rats (An ECF agent)
[5]; in rats, primarily renal
  Clearance: 14.9 hr^−1 in rats (Primarily renal)
[5]; α phase, read-out: Blood half-life for ST (rat), α
  half-life: 6 min
[5]; β phase, read-out: Blood half-life for ST (rat), β (converted)
  half-life: 161 min
[6]
  Induction of Ca2+-dependent K+ current (KCa), charybdotoxin-sensitive: induced
  Reversal potential derived from the induced current-voltage relationship: ~−70 mV
[6]; 500 nM ST, 2.5 mM 8-br-cGMP
  Induction of L-DLT-sensitive membrane current: induced membrane current; also recorded: induces an L-DLT-sensitive current
[6]; control, 1.8 mM CaCl2, n=5
  Induced current in the presence of [Ca2+]ext: 0.23±0.07 nA
[6]; n=6
  Reversal potential Em in the presence of ST: −66.3±3.6 mV
[6]; ramp pulses, holding potential −40 mV, mean±SEM
  Shift of the reversal potential ΔEm: −27.5±2.6 mV
[7]
  Increase of association of cells with laminin or fibronectin: not with laminin or fibronectin
  Increase of association of cells with type IV collagen: 2 fold
[8]; ST 1 micromolar, confocal microscopy
  Organization of actin cytoskeleton: prevented
[8]; in vitro
  Cell spreading: cannot spread
[9]; 70 kg man, (0.693)(Vd)/(t1/2)
  Clearance Cl: 3.7 mL/min/kg
[9]; 70 kg patient, ECF volume
  Volume of distribution Vd of ST: 12 L
[9]; calculated
  t1/2 (α) in man: 24 min
[9]; man, α phase, allometric scaling theory
  Blood half-life for ST (man), α: 24 min
[9]; man, β phase, allometric scaling theory
  Blood half-life for ST (man), β: 667.2 min
[9]; used for infusion rate calculation
  t1/2 (α+β): 31.8 min
GCC-bearing cells
  Effect on cell cycle: prolongation of the cell cycle; also recorded: increases equally for all four phases of the cell cycle
[10]
  Release of matrix metalloproteinase 9: inhibited the release
[11]
  Induced current after removal of [Ca2+]ext: 0.02±0.01 nA

## COc1ccc([C@H]2Sc3ccccc3N(CCN(C)C)C(=O)[C@H]2OC(C)=O)cc1 (relative stereo) [L-DLT, L-cis-diltiazem]
T84 cells [1]; 200 μM L-DLT, 8-br-cGMP 5 mM
  Effect of L-DLT on inhibition of proliferation by 8-br-cGMP: blocked
T84 cells [1]; with ST, 1 μM KT5823, 50 μM RP8pCPT-cGMP, 0.5 μM KT5720, 50 μM RP-cAMPs, 10 μM milrinone, 200 μM L-DLT, 20 μM BAPTA, 50 μM DTR, 1 μM PHE, 100 nM CTX
  Effect of agent on inhibition of proliferation induced by ST: prevented; also recorded: blocked
Rat colon
  Effect on ST-induced 45Ca2+ influx in the rat colon: abolished
T84 cells [2]; pretreatment 30 min, 250 μM L-DLT
  Effect of L-DLT on ST- and 8-br-cGMP-induced 45Ca2+ influx: inhibited; also recorded: abolished
[6]; 200 μM L-DLT
  Effect of L-DLT on ST-induced current and reversal potential shift: reversibly blocked; also recorded: reversed
[6]; n=4
  Reversal potential Em restored by L-DLT in the presence of ST: −39.5±5.2 mV

## Guanylin: 15 amino acid peptide with about 50% sequence homology to ST, identified in mammalian intestine (PNTCEICAYAACTGC; guanylin)
ST receptors
  Guanylate cyclase activation level, fold less than native ST: 10- to 100 fold
